Data on 31 molecules can be found in patent US12421210B2, “Fused bicyclic heterocycles as therapeutic agents” (NEW YORK UNIVERSITY, priority 2018, dated 2025).

The term IC50 denotes the point on the concentration scale where inhibition reaches its midpoint.

Some results are limits rather than exact numbers.

The target in the first assay is human NAMPT enzyme (His-hNAMPT) (Homo sapiens (Human), UniProt P43490). Kind of assay: NAMPT enzymatic inhibition assay (fluorescence, NADH product). The assay is classed as biochemical. To be noted: [BPS]; read-out: NAMPT IC50 (μM) [BPS].
human NAMPT enzyme (His-hNAMPT), sequence (P43490 whole entry): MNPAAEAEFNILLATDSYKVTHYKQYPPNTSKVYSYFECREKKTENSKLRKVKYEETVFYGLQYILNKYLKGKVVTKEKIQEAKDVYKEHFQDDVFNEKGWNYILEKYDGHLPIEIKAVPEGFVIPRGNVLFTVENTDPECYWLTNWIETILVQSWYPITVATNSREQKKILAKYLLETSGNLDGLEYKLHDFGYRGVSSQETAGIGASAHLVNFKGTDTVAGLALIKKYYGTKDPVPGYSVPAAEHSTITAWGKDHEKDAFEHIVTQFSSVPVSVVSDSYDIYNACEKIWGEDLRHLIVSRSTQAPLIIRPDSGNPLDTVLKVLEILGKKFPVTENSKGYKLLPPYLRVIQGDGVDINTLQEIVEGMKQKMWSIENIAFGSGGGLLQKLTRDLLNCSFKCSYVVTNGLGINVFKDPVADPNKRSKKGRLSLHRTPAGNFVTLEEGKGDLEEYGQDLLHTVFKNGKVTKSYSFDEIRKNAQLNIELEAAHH
Take `Nc1ccc(/C=C/C(=O)NCC[C@@H]2[C@H]3CN(C(=O)c4cccc(C(=O)O)c4)C[C@@H]23)cn1` [Example 178, 3-((1R,5S,6s)-6-(2-((E)-3-(6-aminopyridin-3-yl)acrylamido)ethyl)-3-azabicyclo[3.1.0]hexane-3-carbonyl)benzoic acid]: the IC50 lay in the range of 0.01 to 0.49 µM.

For `Nc1ccc(/C=C/C(=O)NCC[C@@H]2[C@H]3CN(C(=O)c4ccc(C(=O)O)cc4)C[C@@H]23)cn1` [Example 179, 4-((1R,5S,6s)-6-(2-((E)-3-(6-aminopyridin-3-yl)acrylamido)ethyl)-3-azabicyclo[3.1.0]hexane-3-carbonyl)benzoic acid], the IC50 was in the range of 1 to 29 µM.

`O=C(O)c1cccc(C(=O)N2C[C@@H]3[C@@H](CCNC(=O)c4cc5ccncc5o4)[C@@H]3C2)c1` [Example 180, 3-((1R,5S,6s)-6-(2-(furo[2,3-c]pyridine-2-carboxamido)ethyl)-3-azabicyclo[3.1.0]hexane-3-carbonyl)benzoic acid]: the IC50 was in the range of 0.5 to 0.99 µM.

On to `O=C(O)c1cccc(C(=O)N2C[C@@H]3[C@@H](CCNC(=O)c4ccc5nccn5c4)[C@@H]3C2)c1` [Example 181, 3-((1R,5S,6s)-6-(2-(imidazo[1,2-a]pyridine-6-carboxamido)ethyl)-3-azabicyclo[3.1.0]hexane-3-carbonyl)benzoic acid], for which the IC50 is 1 to 29 µM.

On to `Nc1ccc(/C=C/C(=O)NCC[C@@H]2[C@H]3CN(c4ncccn4)C[C@@H]23)cn1` [Example 189, (E)-3-(6-aminopyridin-3-yl)-N-(2-((1R,5S,6s)-3-(pyrimidin-2-yl)-3-azabicyclo[3.1.0]hexan-6-yl)ethyl)acrylamide], for which the IC50 lay within 0.01 to 0.49 µM.

In the case of `Nc1ccc(/C=C/C(=O)NCC[C@@H]2[C@H]3CN(c4nc5ccccc5s4)C[C@@H]23)cn1` [Example 190, (E)-3-(6-aminopyridin-3-yl)-N-(2-((1R,5S,6s)-3-(benzo[d]thiazol-2-yl)-3-azabicyclo[3.1.0]hexan-6-yl)ethyl)acrylamide], the IC50 was in the range of 0.01 to 0.49 µM.

Consider `Nc1ccc(/C=C/C(=O)NCC[C@@H]2[C@H]3CN(c4cccc5ccccc45)C[C@@H]23)cn1` [Example 191, (E)-3-(6-aminopyridin-3-yl)-N-(2-((1R,5S,6s)-3-(naphthalen-1-yl)-3-azabicyclo[3.1.0]hexan-6-yl)ethyl)acrylamide], for which the IC50 is 0.01 to 0.49 µM.

The same assay, now with this note: [HDB]; read-out: NAMPT IC50 (μM) [HDB].
Take `COc1cc(N2C[C@@H]3[C@@H](CCNC(=O)/C=C/c4cccnc4)[C@@H]3C2)ccn1` [Example 161, (E)-N-(2-((1R,5S,6S)-3-(2-methoxypyridin-4-yl)-3-azabicyclo[3.1.0]hexan-6-yl)ethyl)-3-(pyridin-3-yl)acrylamide]: the IC50 was 0.01 to 0.49 µM.

`O=C(/C=C/c1cccnc1)NCC[C@@H]1[C@H]2CN(c3ncc(C(F)(F)F)cn3)C[C@@H]12` [Example 162, (E)-3-(pyridin-3-yl)-N-(2-((1R,5S,6s)-3-(5-(trifluoromethyl)pyrimidin-2-yl)-3-azabicyclo[3.1.0]hexan-6-yl)ethyl)acrylamide]: the 50% inhibitory concentration (IC50) lay within 0.01 to 0.49 µM.

As to `O=C(/C=C/c1cccnc1)NCC[C@@H]1[C@H]2CN(c3ncc(F)cn3)C[C@@H]12` [Example 163, (E)-N-(2-((1R,5S,6s)-3-(5-fluoropyrimidin-2-yl)-3-azabicyclo[3.1.0]hexan-6-yl)ethyl)-3-(pyridin-3-yl)acrylamide], the IC50 fell in the range of 0.01 to 0.49 µM.

Regarding `O=C(/C=C/c1cccnc1)NCC[C@@H]1[C@H]2CN(c3ncc(Cl)cn3)C[C@@H]12` [Example 164, (E)-N-(2-((1R,5S,6s)-3-(5-chloropyrimidin-2-yl)-3-azabicyclo[3.1.0]hexan-6-yl)ethyl)-3-(pyridin-3-yl)acrylamide], the IC50 is 0.01 to 0.49 µM.

On to `Nc1ccc(/C=C/C(=O)NCC[C@@H]2[C@H]3CN(c4ncc5ccccc5n4)C[C@@H]23)cn1` [Example 165, (E)-3-(6-aminopyridin-3-yl)-N-(2-((1R,5S,6s)-3-(quinazolin-2-yl)-3-azabicyclo[3.1.0]hexan-6-yl)ethyl)acrylamide], for which the IC50 lay within 0.01 to 0.49 µM.

With `O=C(/C=C/c1cccnc1)NCC[C@@H]1[C@H]2CN(c3ncc4c(n3)CCOC4)C[C@@H]12` [Example 166, (E)-N-(2-((1R,5S,6s)-3-(7,8-dihydro-5H-pyrano[4,3-d]pyrimidin-2-yl)-3-azabicyclo[3.1.0]hexan-6-yl)ethyl)-3-(pyridin-3-yl)acrylamide], the IC50 lay within 0.01 to 0.49 µM.

Turning to `O=C(/C=C/c1cccnc1)NCC[C@@H]1[C@H]2CN(c3ncc4cc(F)ccc4n3)C[C@@H]12` [Example 167, (E)-N-(2-((1R,5S,6s)-3-(6-fluoroquinazolin-2-yl)-3-azabicyclo[3.1.0]hexan-6-yl)ethyl)-3-(pyridin-3-yl)acrylamide], the IC50 lay in the range of 0.01 to 0.49 µM.

As to `O=C(/C=C/c1cccnc1)NCC[C@@H]1[C@H]2CN(c3ccncn3)C[C@@H]12` [Example 168, (E)-3-(pyridin-3-yl)-N-(2-((1R,5S,6s)-3-(pyrimidin-4-yl)-3-azabicyclo[3.1.0]hexan-6-yl)ethyl)acrylamide], the IC50 fell in the range of 0.01 to 0.49 µM.

With `O=C(/C=C/c1cccnc1)NCC[C@@H]1[C@H]2CN(c3nccc(C(F)(F)F)n3)C[C@@H]12` [Example 169, (E)-3-(pyridin-3-yl)-N-(2-((1R,5S,6s)-3-(4-(trifluoromethyl)pyrimidin-2-yl)-3-azabicyclo[3.1.0]hexan-6-yl)ethyl)acrylamide], the IC50 was under 0.01 µM.

With `O=C(/C=C/c1cccnc1)NCC[C@@H]1[C@H]2CN(c3ncncn3)C[C@@H]12` [Example 170, (E)-N-(2-((1R,5S,6s)-3-(1,3,5-triazin-2-yl)-3-azabicyclo[3.1.0]hexan-6-yl)ethyl)-3-(pyridin-3-yl)acrylamide], the IC50 was in the range of 0.01 to 0.49 µM.

In the case of `NC(=O)c1ccnc(N2C[C@@H]3[C@@H](CCNC(=O)/C=C/c4cccnc4)[C@@H]3C2)n1` [Example 171, 2-((1R,5S,6s)-6-(2-((E)-3-(pyridin-3-yl)acrylamido)ethyl)-3-azabicyclo[3.1.0]hexan-3-yl)pyrimidine-4-carboxamide], the IC50 was under 0.01 µM.

Regarding `O=C(/C=C/c1cccnc1)NCC[C@@H]1[C@H]2CN(c3nc(Cl)ncc3F)C[C@@H]12` [Example 172, (E)-N-(2-((1R,5S,6s)-3-(2-chloro-5-fluoropyrimidin-4-yl)-3-azabicyclo[3.1.0]hexan-6-yl)ethyl)-3-(pyridin-3-yl)acrylamide], the IC50 is under 0.01 µM.

For the molecule `COc1nc(N2C[C@@H]3[C@@H](CCNC(=O)/C=C/c4cccnc4)[C@@H]3C2)ncc1F` [Example 173, (E)-N-(2-((1R,5S,6s)-3-(5-fluoro-4-methoxypyrimidin-2-yl)-3-azabicyclo[3.1.0]hexan-6-yl)ethyl)-3-(pyridin-3-yl)acrylamide], the IC50 was 0.01 to 0.49 µM.

Consider `NC(=O)c1cnc(N2C[C@@H]3[C@@H](CCNC(=O)/C=C/c4cccnc4)[C@@H]3C2)nc1` [Example 174, 2-((1R,5S,6s)-6-(2-((E)-3-(pyridin-3-yl)acrylamido)ethyl)-3-azabicyclo[3.1.0]hexan-3-yl)pyrimidine-5-carboxamide], for which the IC50 was under 0.01 µM.

As for `O=C(/C=C/c1cccnc1)NCC[C@@H]1[C@H]2CN(c3nc(C(F)(F)F)cs3)C[C@@H]12` [Example 175, (E)-3-(pyridin-3-yl)-N-(2-((1R,5S,6s)-3-(4-(trifluoromethyl)thiazol-2-yl)-3-azabicyclo[3.1.0]hexan-6-yl)ethyl)acrylamide], the IC50 was 0.01 to 0.49 µM.

As to `O=C(/C=C/c1cccnc1)NCC[C@@H]1[C@H]2CN(c3ccccn3)C[C@@H]12` [Example 176, (E)-N-(2-((1R,5S,6s)-3-(pyridin-2-yl)-3-azabicyclo[3.1.0]hexan-6-yl)ethyl)-3-(pyridin-3-yl)acrylamide], the IC50 was 0.01 to 0.49 µM.

Turning to `O=C(/C=C/c1cccnc1)NCC[C@@H]1[C@H]2CN(c3cnccn3)C[C@@H]12` [Example 177, (E)-N-(2-((1R,5S,6s)-3-(pyrazin-2-yl)-3-azabicyclo[3.1.0]hexan-6-yl)ethyl)-3-(pyridin-3-yl)acrylamide], the IC50 lay in the range of 0.01 to 0.49 µM.

Take `Nc1ccc(/C=C/C(=O)NCC[C@@H]2[C@H]3CN(C(=O)c4ccc(C(=O)O)cc4)C[C@@H]23)cn1` [Example 179, 4-((1R,5S,6s)-6-(2-((E)-3-(6-aminopyridin-3-yl)acrylamido)ethyl)-3-azabicyclo[3.1.0]hexane-3-carbonyl)benzoic acid]: the IC50 lay in the range of 0.5 to 0.99 µM.

`O=C(O)c1cccc(C(=O)N2C[C@@H]3[C@@H](CCNC(=O)c4cnc5nccn5c4)[C@@H]3C2)c1` [Example 182, 3-((1R,5S,6s)-6-(2-(imidazo[1,2-a]pyrimidine-6-carboxamido)ethyl)-3-azabicyclo[3.1.0]hexane-3-carbonyl)benzoic acid]: the IC50 fell in the range of 0.01 to 0.49 µM.

`NC(=O)c1cccc(N2C[C@@H]3[C@@H](CCNC(=O)/C=C/c4cccnc4)[C@@H]3C2)c1` [Example 183, 3-((1R,5S,6s)-6-(2-((E)-3-(pyridin-3-yl)acrylamido)ethyl)-3-azabicyclo[3.1.0]hexan-3-yl)benzamide]: the IC50 was 0.01 to 0.49 µM.

On to `CC(=O)Nc1cccc(N2C[C@@H]3[C@@H](CCNC(=O)/C=C/c4cccnc4)[C@@H]3C2)c1` [Example 184, (E)-N-(2-((1R,5S,6s)-3-(3-acetamidophenyl)-3-azabicyclo[3.1.0]hexan-6-yl)ethyl)-3-(pyridin-3-yl)acrylamide], for which the IC50 lay within 0.01 to 0.49 µM.

In the case of `CS(=O)(=O)Nc1cccc(N2C[C@@H]3[C@@H](CCNC(=O)/C=C/c4cccnc4)[C@@H]3C2)c1` [Example 185, (E)-N-(2-((1R,5S,6s)-3-(3-(methylsulfonamido)phenyl)-3-azabicyclo[3.1.0]hexan-6-yl)ethyl)-3-(pyridin-3-yl)acrylamide], the IC50 fell in the range of 0.01 to 0.49 µM.

As to `NC(=O)c1ccc(N2C[C@@H]3[C@@H](CCNC(=O)/C=C/c4cccnc4)[C@@H]3C2)cc1` [Example 186, 4-((1R,5S,6s)-6-(2-((E)-3-(pyridin-3-yl)acrylamido)ethyl)-3-azabicyclo[3.1.0]hexan-3-yl)benzamide], the IC50 lay in the range of 0.01 to 0.49 µM.

For `O=C(/C=C/c1cccnc1)NCC[C@@H]1[C@H]2CN(c3ncc(F)c(O)n3)C[C@@H]12` [Example 187, (E)-N-(2-((1R,5S,6s)-3-(5-fluoro-4-hydroxypyrimidin-2-yl)-3-azabicyclo[3.1.0]hexan-6-yl)ethyl)-3-(pyridin-3-yl)acrylamide], the IC50 lay within 0.01 to 0.49 µM.

On to `O=C(/C=C/c1cccnc1)NCC[C@@H]1[C@H]2CN(c3ncc(F)c(Cl)n3)C[C@@H]12` [Example 188, (E)-N-(2-((1R,5S,6s)-3-(4-chloro-5-fluoropyrimidin-2-yl)-3-azabicyclo[3.1.0]hexan-6-yl)ethyl)-3-(pyridin-3-yl)acrylamide], for which the IC50 was under 0.01 µM.
